Data: patent EP0179667B1, “N6-substituted adenosines” (priority 1984, dated 1986)

Columns and labels:
[1] = biological target: T1, adenosine A1 receptor (Rattus norvegicus, UniProt P25099); experiment: Adenosine Receptor Binding - A1 Receptor Affinity (RBA1); details: [3H]-CHA, rat whole brain membranes; read-out: RBA-1
T1 construct: Whole brain minus cerebellum and brainstem from male Long Evans rats (150-200 g) was homogenized; from tissue; host or cells: rat whole brain minus cerebellum and brainstem, membrane homogenate
T1 sequence (P25099 1-326): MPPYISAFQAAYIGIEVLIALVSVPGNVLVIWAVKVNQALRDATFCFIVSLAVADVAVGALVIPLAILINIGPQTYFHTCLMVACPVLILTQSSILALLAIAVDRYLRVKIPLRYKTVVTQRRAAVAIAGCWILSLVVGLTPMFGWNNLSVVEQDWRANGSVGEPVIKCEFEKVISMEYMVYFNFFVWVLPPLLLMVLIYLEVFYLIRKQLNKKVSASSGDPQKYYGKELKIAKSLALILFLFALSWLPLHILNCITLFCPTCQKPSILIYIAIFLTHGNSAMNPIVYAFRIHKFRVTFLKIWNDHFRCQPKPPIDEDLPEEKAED

[2] = tested on: Swiss-Webster male mice; experiment: Mouse Activity and Screen Test Procedure (MAST): locomotor activity in actophotometer; assay type: in vivo; details: one hour prior to testing
[3] = tested on: Swiss-Webster male mice; experiment: Mouse Activity and Screen Test Procedure (MAST): screen test (ST); assay type: in vivo; details: one hour postinjection

Compound	IC50 [1] [nM]	Inhibition of mouse locomotor activity ([2]; 3 mg/kg intraperitoneally) [%]	Inhibition of mouse locomotor activity ([2]; 10 mg/kg intraperitoneally) [%]	Inhibition of mouse locomotor activity ([2]; 30 mg/kg intraperitoneally) [%]	Screen test failure ([3]; 3 mg/kg intraperitoneally) [%]	Screen test failure ([3]; 10 mg/kg intraperitoneally) [%]	Screen test failure ([3]; 30 mg/kg intraperitoneally) [%]
OC[C@H]1O[C@@H](n2cnc3c(NCC4(O)CCCCc5ccccc54)ncnc32)[C@H](O)[C@@H]1O (some centres unmarked) [Example 27, N^6-(1-hydroxy-1-benzocycloheptyl]methyladenosine]	445	1	33	33	0	11	0
OC[C@H]1O[C@@H](n2cnc3c(NCC4CCCCc5ccccc54)ncnc32)[C@H](O)[C@@H]1O (some centres unmarked) [Example 28, N^6-(1-benzocycloheptyl)methyladenosine]	208	35	19	59	0	11	0
